Among the data in patent US8980905B2, “Benzodioxole or benzodioxepine heterocyclic compounds as phosphodiesterase inhibitors” (Leo Pharma A/S, priority 2010, dated 2015) are IC50 and Cmax values, retold here.

Data set [1] addresses Human recombinant PDE4 (Genbank accession no NM-006203) (Homo sapiens (Human), UniProt Q08499). Briefly: PDE4 Assay (SPA, cAMP cleavage). Type of data set: biochemical. How it is done:
Human recombinant PDE4 (Genbank accession no NM_006203) was incubated for 1 hour, with the test compound at concentrations up to 10 μM, with cAMP (1×10^-5M), and with a low amount (0.021 MBq) of radioactively labelled cAMP. At the end of the incubation, the cleavage of the substrate was evaluated by the binding of the AMP product to SPA beads, which generate chemoluminescence when bound to the radioactive tracer. The AMP product inhibited the binding of the radioactive tracer to the beads, and the luminescent signal was competed.
The results were calculated as the molar concentrations resulting in 50% inhibition of the substrate cleavage compared to controls samples, and are expressed as IC50 (M).

Data set [2] can be described thus: In vivo pharmacokinetic analyses in rat. The conditions noted are these: serum, PO dosing 5 mg/kg, read-out: Serum Cmax of parent compound. How it is done:
One rat is dosed orally (5 mg/kg—dissolved in DMSO/H2O/propylenglycol [1:5:4]) and blood samples are taken from the sublingual venous plexus at 30 min, 1 h, 2 h, 4 h and 6 h. Blood samples are taken in BD Vacutainer SST serum separation tubes, serum is isolated by centrifugation, transferred to micronics tubes and subsequently analysed.
Mass spectrometer (API5000 series) parameters are optimised to analyse for the specific compounds and test injections are performed to confirm the validity of the established generic chromatography method. The generic method is based on fast gradient (2.5 min) analysis on C18 column with mobile phases consisting methanol, ammonium acetate, formic acid and water.
Standards are prepared in rat serum to cover the analytical range 0.1 to 300 ng/ml. Standards, blank serum and study samples are applied to 96 deepwell plate and proteins are precipitated by addition of acetonitrile containing internal standard. Samples are analysed on LC-MS/MS usually overnight. Integration and quantification is performed on ration between analyte and internal standard using Analyst software version 1.5. Pharmacokinetic parameters are calculated using a standardised Excel spreadsheet.

Setting [3] is: human recombinant PDE4, 1 hour incubation, cAMP 1x10-5 M, read-out: IC50 (PDE4).

Molecules are shown by their SMILES. Like-named read-outs stand apart in the source and are kept apart here.

Sequence of Human recombinant PDE4 (Genbank accession no NM-006203) (Q08499 other isoform, or with tags, fused parts or gaps): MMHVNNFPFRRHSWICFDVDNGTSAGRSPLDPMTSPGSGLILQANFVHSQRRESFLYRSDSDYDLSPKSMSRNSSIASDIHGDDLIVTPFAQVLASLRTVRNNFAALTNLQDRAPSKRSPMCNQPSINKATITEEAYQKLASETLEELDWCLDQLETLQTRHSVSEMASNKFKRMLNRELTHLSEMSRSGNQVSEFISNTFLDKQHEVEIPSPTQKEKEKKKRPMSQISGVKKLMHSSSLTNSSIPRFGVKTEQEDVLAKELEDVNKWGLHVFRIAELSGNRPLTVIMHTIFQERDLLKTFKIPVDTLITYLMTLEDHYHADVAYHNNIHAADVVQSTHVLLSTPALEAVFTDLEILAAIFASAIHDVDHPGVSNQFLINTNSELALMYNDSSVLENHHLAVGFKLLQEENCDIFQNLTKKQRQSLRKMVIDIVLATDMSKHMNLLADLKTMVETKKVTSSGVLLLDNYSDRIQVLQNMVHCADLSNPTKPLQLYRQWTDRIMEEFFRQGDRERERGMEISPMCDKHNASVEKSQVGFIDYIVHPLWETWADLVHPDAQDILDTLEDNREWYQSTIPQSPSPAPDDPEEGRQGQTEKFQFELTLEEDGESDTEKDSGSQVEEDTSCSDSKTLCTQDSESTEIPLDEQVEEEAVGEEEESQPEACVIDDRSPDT

As to `O=C(Nc1c(Cl)cncc1Cl)c1ccc(OC(F)F)c2c1OC1(CCSCC1)O2` [Compound 110, N-(3,5-Dichloro-4-pyridyl)-7-Difluoromethoxy-2′,3′,5′,6′-tetrahydro-spiro[1,3-benzodioxole-2,4′-(4H)-thiopyran]-4-carbamide], the IC50 in data set [1] (setting [3]) came out at 2 nM.

As a reminder, the Cmax is the highest concentration seen after dosing. As for `O=C(Cc1c(Cl)cncc1Cl)c1ccc(OC(F)F)c2c1OC1(CCOCC1)O2` [Compound 105, 2-(3,5-Dichloropyridine-4-yl)-1-(7-difluoromethoxy-2′,3′,5′,6′-tetrahydro-spiro[1,3-benzodioxole-2,4′-(4H)-pyran]-4-yl)ethanone], in data set [1] (setting [3]), the IC50 turned out to be 7 nM. Moreover, the peak concentration (Cmax) in data set [2] was under 3 ng/mL.

In the case of `O=C(Cc1c(Cl)c[n+]([O-])cc1Cl)c1ccc(OC(F)F)c2c1OC1(CCOCC1)O2` [Compound 106, 2-(3,5-Dichloro-1-oxido-pyridine-4-yl)-1-(7-difluoromethoxy-2′,3′,5′,6′-tetrahydro-spiro[1,3-benzodioxole-2,4′-(4H)-pyran]-4-yl)ethanone], the IC50 in data set [1] (setting [3]) is 5 nM. The Cmax in data set [2] turned out to be 133 ng/mL.

With `O=C(Cc1c(Cl)c[n+]([O-])cc1Cl)c1ccc(OC(F)F)c2c1OCC1(CCOCC1)CO2` [Compound 104, 2-(3,5-Dichloro-1-oxido-pyridin-4-yl)-1-{9-difluoromethoxy-spiro[2H-1,5-benzodioxepin-3(4H),4′-tetrahydropyran]-6-yl}ethanone], the IC50 in data set [1] (setting [3]) worked out at 4 nM.

In the case of `O=C(Cc1c(Cl)c[n+]([O-])cc1Cl)c1ccc(OC(F)F)c2c1OC1(CCS(=O)(=O)CC1)O2` [Compound 108, 2-(3,5-Dichloro-1-oxido-pyridine-4-yl)-1-(7-difluoromethoxy-2′,3′,5′,6′-tetrahydro-spiro[1,3-benzodioxole-2, 4′-(4H)-thiopyran-1′,1′-dioxide]-4-yl)ethanone], the IC50 in data set [1] (setting [3]) was found to be 16 nM.

On to `O=C(Nc1c(Cl)c[n+]([O-])cc1Cl)c1ccc(OC(F)F)c2c1OC1(CCS(=O)(=O)CC1)O2` [Compound 111, N-(3,5-dichloro-1-oxo-4-pyridyl)-7-(difluoromethoxy)-1′,1′-dioxo-spiro[1,3-benzodioxole-2,4′-thiane]-4-carboxamide], for which the IC50 in data set [1] (setting [3]) was found to be 106 nM.

With `O=C(Cc1c(Cl)cncc1Cl)c1ccc(OC(F)F)c2c1OCC1(CCOCC1)CO2` [Compound 103, 2-(3,5-Dichloropyridin-4-yl)-1-{9-difluoromethoxy-spiro[2H-1,5-benzodioxepin-3(4H),4′-tetrahydropyran]-6-yl}ethanone], the IC50 in data set [1] (setting [3]) was determined as 6 nM.

For the compound `O=C(Cc1c(Cl)cncc1Cl)c1ccc(OC(F)F)c2c1OCC1(COC1)CO2` [Compound 101, 2-(3,5-Dichloropyridin-4-yl)-1-{9-difluoromethoxy-spiro[2H-1,5-benzodioxepin-3(4H),3′-oxetane]-6-yl}ethanone], in data set [1] (setting [3]), the IC50 was determined as 6 nM.

`O=C(Cc1c(Cl)cncc1Cl)c1ccc(OC(F)F)c2c1OC1(CCS(=O)(=O)CC1)O2` [Compound 109, 2-(3,5-Dichloropyridine-4-yl)-1-(7-difluoromethoxy-2′,3′,5′,6′-tetrahydro-spiro[1,3-benzodioxole-2, 4′-(4H)-thiopyran-1′,1′-dioxide]-4-yl)ethanone]: in data set [1] (setting [3]), the IC50 is 13 nM.

Regarding `O=C(Cc1c(Cl)cncc1Cl)c1ccc(O)c2c1OC1(CCOCC1)O2` [Compound 403, 2-(3,5-Dichloropyridine-4-yl)-1-(7-hydroxy-2′,3′,5′,6′-tetrahydro-spiro[1,3-benzodioxole-2,4′-(4H)-pyran]-4-yl)ethanone], in data set [1] (stated in text of example 15, read-out: PDE4 activity), the IC50 is 5000 nM.
